Patent publication US20260130395A1, “Water Dispersible Botanical Compositions” (Aquila Black Limited, priority 2021, published 2026)

Test: Stability of cannabinoid compounds and Vitamin E components in Beverage 2 (AB Red) by LCMSMS
Assay type: physicochemical

## CCCc1cc(O)c2c(c1)OC(C)(C)[C@@H]1CCC(C)=C[C@@H]21 [THCV, delta-9-tetrahydrocannabivarin]
Stored at 8° C., 0 days
  Stability of Plant-Derived Cannabinoid Compounds in AB Red: 3.22 µg/mL
Stored at 8° C., 1 days
  Stability of Plant-Derived Cannabinoid Compounds in AB Red: 3.19 µg/mL
Stored at 8° C., 2 days
  Stability of Plant-Derived Cannabinoid Compounds in AB Red: 3.17 µg/mL
Stored at 8° C., 3 days
  Stability of Plant-Derived Cannabinoid Compounds in AB Red: 3.20 µg/mL
Stored at 8° C., 5 days
  Stability of Plant-Derived Cannabinoid Compounds in AB Red: 3.24 µg/mL
Stored at 8° C., 8 days
  Stability of Plant-Derived Cannabinoid Compounds in AB Red: 3.17 µg/mL
Stored at 8° C., 9 days
  Stability of Plant-Derived Cannabinoid Compounds in AB Red: 3.14 µg/mL
Stored at 8° C., 10 days
  Stability of Plant-Derived Cannabinoid Compounds in AB Red: 3.14 µg/mL
Stored at 8° C., 11 days
  Stability of Plant-Derived Cannabinoid Compounds in AB Red: 3.24 µg/mL
Stored at 8° C., 12 days
  Stability of Plant-Derived Cannabinoid Compounds in AB Red: 3.25 µg/mL
Stored at 8° C., 15 days
  Stability of Plant-Derived Cannabinoid Compounds in AB Red: 3.19 µg/mL
Stored at 8° C., 16 days
  Stability of Plant-Derived Cannabinoid Compounds in AB Red: 3.25 µg/mL
Stored at 8° C., 17 days
  Stability of Plant-Derived Cannabinoid Compounds in AB Red: 3.12 µg/mL
Stored at 8° C., 18 days
  Stability of Plant-Derived Cannabinoid Compounds in AB Red: 3.17 µg/mL
Stored at 8° C., 19 days
  Stability of Plant-Derived Cannabinoid Compounds in AB Red: 3.19 µg/mL
Stored at 8° C., 22 days
  Stability of Plant-Derived Cannabinoid Compounds in AB Red: 3.22 µg/mL
Stored at 8° C., 23 days
  Stability of Plant-Derived Cannabinoid Compounds in AB Red: 3.25 µg/mL
Stored at 8° C., 24 days
  Stability of Plant-Derived Cannabinoid Compounds in AB Red: 3.15 µg/mL
Stored at 8° C., 25 days
  Stability of Plant-Derived Cannabinoid Compounds in AB Red: 3.25 µg/mL
Stored at 8° C., 26 days
  Stability of Plant-Derived Cannabinoid Compounds in AB Red: 3.13 µg/mL
Stored at 8° C., 29 days
  Stability of Plant-Derived Cannabinoid Compounds in AB Red: 3.22 µg/mL
Stored at 8° C., 30 days
  Stability of Plant-Derived Cannabinoid Compounds in AB Red: 3.20 µg/mL
Stored at 8° C., 60 days
  Stability of Plant-Derived Cannabinoid Compounds in AB Red: 3.11 µg/mL
Stored at 8° C., 90 days
  Stability of Plant-Derived Cannabinoid Compounds in AB Red: 3.10 µg/mL
Stored at 8° C., 120 days
  Stability of Plant-Derived Cannabinoid Compounds in AB Red: 3.10 µg/mL
Stored at 8° C., 150 days
  Stability of Plant-Derived Cannabinoid Compounds in AB Red: 3.15 µg/mL
Stored at 8° C., 180 days
  Stability of Plant-Derived Cannabinoid Compounds in AB Red: 3.10 µg/mL
Stored at 8° C., 210 days
  Stability of Plant-Derived Cannabinoid Compounds in AB Red: 3.15 µg/mL
Stored at 8° C., 240 days
  Stability of Plant-Derived Cannabinoid Compounds in AB Red: 3.08 µg/mL
Stored at 8° C., 270 days
  Stability of Plant-Derived Cannabinoid Compounds in AB Red: 3.15 µg/mL
Stored at 8° C., 300 days
  Stability of Plant-Derived Cannabinoid Compounds in AB Red: 3.15 µg/mL
Stored at 8° C., 330 days
  Stability of Plant-Derived Cannabinoid Compounds in AB Red: 3.15 µg/mL
Stored at 8° C., 360 days
  Stability of Plant-Derived Cannabinoid Compounds in AB Red: 3.08 µg/mL
Stored at 8° C., 390 days
  Stability of Plant-Derived Cannabinoid Compounds in AB Red: 3.08 µg/mL
Stored at 8° C., 420 days
  Stability of Plant-Derived Cannabinoid Compounds in AB Red: 3.13 µg/mL
Stored at 8° C., 450 days
  Stability of Plant-Derived Cannabinoid Compounds in AB Red: 3.08 µg/mL
Stored at 8° C., 480 days
  Stability of Plant-Derived Cannabinoid Compounds in AB Red: 3.05 µg/mL
Stored at 8° C., 510 days
  Stability of Plant-Derived Cannabinoid Compounds in AB Red: 2.95 µg/mL
Stored at 8° C., 540 days
  Stability of Plant-Derived Cannabinoid Compounds in AB Red: 2.99 µg/mL
Stored at 8° C., 570 days
  Stability of Plant-Derived Cannabinoid Compounds in AB Red: 2.95 µg/mL
Stored at 21-25° C., 0 days
  Stability of Plant-Derived Cannabinoid Compounds in AB Red: 3.22 µg/mL
Stored at 21-25° C., 1 days
  Stability of Plant-Derived Cannabinoid Compounds in AB Red: 3.13 µg/mL
Stored at 21-25° C., 2 days
  Stability of Plant-Derived Cannabinoid Compounds in AB Red: 3.20 µg/mL
Stored at 21-25° C., 3 days
  Stability of Plant-Derived Cannabinoid Compounds in AB Red: 3.25 µg/mL
Stored at 21-25° C., 5 days
  Stability of Plant-Derived Cannabinoid Compounds in AB Red: 3.25 µg/mL
Stored at 21-25° C., 8 days
  Stability of Plant-Derived Cannabinoid Compounds in AB Red: 3.19 µg/mL
Stored at 21-25° C., 9 days
  Stability of Plant-Derived Cannabinoid Compounds in AB Red: 3.17 µg/mL
Stored at 21-25° C., 10 days
  Stability of Plant-Derived Cannabinoid Compounds in AB Red: 3.09 µg/mL
Stored at 21-25° C., 11 days
  Stability of Plant-Derived Cannabinoid Compounds in AB Red: 3.24 µg/mL
Stored at 21-25° C., 12 days
  Stability of Plant-Derived Cannabinoid Compounds in AB Red: 3.24 µg/mL
Stored at 21-25° C., 15 days
  Stability of Plant-Derived Cannabinoid Compounds in AB Red: 3.20 µg/mL
Stored at 21-25° C., 16 days
  Stability of Plant-Derived Cannabinoid Compounds in AB Red: 3.20 µg/mL
Stored at 21-25° C., 17 days
  Stability of Plant-Derived Cannabinoid Compounds in AB Red: 3.11 µg/mL
Stored at 21-25° C., 18 days
  Stability of Plant-Derived Cannabinoid Compounds in AB Red: 3.19 µg/mL
Stored at 21-25° C., 19 days
  Stability of Plant-Derived Cannabinoid Compounds in AB Red: 3.19 µg/mL
Stored at 21-25° C., 22 days
  Stability of Plant-Derived Cannabinoid Compounds in AB Red: 3.18 µg/mL
Stored at 21-25° C., 23 days
  Stability of Plant-Derived Cannabinoid Compounds in AB Red: 3.23 µg/mL
Stored at 21-25° C., 24 days
  Stability of Plant-Derived Cannabinoid Compounds in AB Red: 3.25 µg/mL
Stored at 21-25° C., 25 days
  Stability of Plant-Derived Cannabinoid Compounds in AB Red: 3.24 µg/mL
Stored at 21-25° C., 26 days
  Stability of Plant-Derived Cannabinoid Compounds in AB Red: 3.11 µg/mL
Stored at 21-25° C., 29 days
  Stability of Plant-Derived Cannabinoid Compounds in AB Red: 3.15 µg/mL
Stored at 21-25° C., 30 days
  Stability of Plant-Derived Cannabinoid Compounds in AB Red: 3.15 µg/mL
Stored at 21-25° C., 60 days
  Stability of Plant-Derived Cannabinoid Compounds in AB Red: 3.18 µg/mL
Stored at 21-25° C., 90 days
  Stability of Plant-Derived Cannabinoid Compounds in AB Red: 3.05 µg/mL
Stored at 21-25° C., 120 days
  Stability of Plant-Derived Cannabinoid Compounds in AB Red: 3.09 µg/mL
Stored at 21-25° C., 150 days
  Stability of Plant-Derived Cannabinoid Compounds in AB Red: 3.17 µg/mL
Stored at 21-25° C., 180 days
  Stability of Plant-Derived Cannabinoid Compounds in AB Red: 3.10 µg/mL
Stored at 21-25° C., 210 days
  Stability of Plant-Derived Cannabinoid Compounds in AB Red: 3.03 µg/mL
Stored at 21-25° C., 240 days
  Stability of Plant-Derived Cannabinoid Compounds in AB Red: 3.18 µg/mL
Stored at 21-25° C., 270 days
  Stability of Plant-Derived Cannabinoid Compounds in AB Red: 3.04 µg/mL
Stored at 21-25° C., 300 days
  Stability of Plant-Derived Cannabinoid Compounds in AB Red: 3.14 µg/mL
Stored at 21-25° C., 330 days
  Stability of Plant-Derived Cannabinoid Compounds in AB Red: 3.19 µg/mL
Stored at 21-25° C., 360 days
  Stability of Plant-Derived Cannabinoid Compounds in AB Red: 3.05 µg/mL
Stored at 21-25° C., 390 days
  Stability of Plant-Derived Cannabinoid Compounds in AB Red: 3.04 µg/mL
Stored at 21-25° C., 420 days
  Stability of Plant-Derived Cannabinoid Compounds in AB Red: 3.10 µg/mL
Stored at 21-25° C., 450 days
  Stability of Plant-Derived Cannabinoid Compounds in AB Red: 3.14 µg/mL
Stored at 21-25° C., 480 days
  Stability of Plant-Derived Cannabinoid Compounds in AB Red: 3.04 µg/mL
Stored at 21-25° C., 510 days
  Stability of Plant-Derived Cannabinoid Compounds in AB Red: 3.01 µg/mL
Stored at 21-25° C., 540 days
  Stability of Plant-Derived Cannabinoid Compounds in AB Red: 2.95 µg/mL
Stored at 21-25° C., 570 days
  Stability of Plant-Derived Cannabinoid Compounds in AB Red: 2.98 µg/mL
